Structures are written as SMILES.

The values below come from patent publication US7067524B2, “Substituted phenyl naphthalenes as estrogenic agents” (Wyeth, priority 2001, dated 2006).

Test [1] relates to casein kinase II mRNA. As to the kind of experiment: Rat mammotrophic assay (mammary end bud test procedure). The format is in vivo. The conditions noted are these: ovariectomized rats, 0.1 mg/kg sc 6 days, with progesterone 30 mg/kg.
Test [2] concerns Progesterone receptor mRNA. In words: Progesterone receptor mRNA regulation in the preoptic area of the rat brain. The format is in vivo. The conditions noted are these: 30 μg/kg.
Test [3] has as its system Sexually immature 129 SvE mice. In words: Mouse uterotrophic test procedure (Procedure 2). In kind it is in vivo. The settings on record: 50 mg/kg/day sc, days 22-25.
The subject of test [4] is metallothionein-II mRNA in Saos-2 cells. In words: Regulation of metallothionein-II mRNA in Saos-2 cells. The settings on record: column head not given. The format is cell-based. Also on record: unit not given here.

For `C[C@]12CC[C@@H]3c4ccc(O)cc4CC[C@H]3[C@@H]1CC[C@@H]2O` [17β-estradiol, reference compound], the “Casein kinase II mRNA/18S rRNA (mean ± SEM)” value in test [1] is reported as 39.0 ± 5.4. In addition, the “Progesterone receptor mRNA (arbitrary units; mean ± stdev)” value in test [2] is 557.1 ± 80.6 arbitrary units. Also, in test [3], the “mean uterine weight (mg) ± SEM” value was found to be 45.3 ± 1.9 mg. In the case of `Oc1ccc(-c2ccc3c(Cl)c(O)ccc3c2)cc1` [Example 1p, 1-Chloro-6-(4-hydroxyphenyl)-2-naphthol], the “Regulation of metallothionein-II mRNA” value in test [4] was 6.0.

With `N#Cc1c(O)ccc2cc(-c3ccc(O)cc3)ccc12` [Example 1s, 2-Hydroxy-6-(4-hydroxyphenyl)-1-naphthonitrile], in test [4], the “Regulation of metallothionein-II mRNA” value is 4.9. Turning to `Oc1ccc2cc(-c3ccc(O)c(Cl)c3)ccc2c1` [Example 1l, 6-(3-Chloro-4-hydroxyphenol)-2-naphthol], the “Regulation of metallothionein-II mRNA” value in test [4] came out at 5.5.

In the case of `Oc1ccc(-c2ccc3cc(O)ccc3c2)cc1` [Example 1e, 6-(4-Hydroxyphenyl)-2-naphthol], in test [4], the “Regulation of metallothionein-II mRNA” value was 17.0. The same measure, in the same setting: the result for `Oc1ccc(-c2ccc3c(Br)c(O)ccc3c2)cc1` [Example 1o, 1-Bromo-6-(4-hydroxyphenyl)-2-naphthol] reads 5.7.
